One data set has as its system SHP-77 cells. Kind of data set: Cell binding (total uptake) of [177Lu]Lu-test peptide, SHP-77 cells. The data set is classed as cell-based. Conditions: SHP77 cells, 1 hour at 37° C., bound fraction. Here is the method:
[^177Lu]LuCl3 was received from venders in HCl solution. For every mCi of [^177Lu]LuCl3 added to the reaction vial (1.5 mL Eppendorf vial), ammonium acetate buffer (0.2 M, pH 4.9, 100 μL, containing 1% w/v ascorbic acid and 6% v/v ethanol) and peptide conjugate (1 nmol). A peptide conjugate of the present disclosure is also referred to herein as a “chelator-peptide”. The pH of the solution was determined to be approximately 5 by using pH strips. The reaction vial was incubated at 80° C., 700 RPM for 17-20 minutes. A sample from the reaction was analyzed by RP-HPLC using an Agilent Infinity II 1260 HPLC to determine reaction completion and radiochemical purity of [^177Lu]Lu-chelator-peptide. HPLC conditions: Waters XBridge BEH C18 Column, 130 Å, 3.5 um, 4.6 mm×250 mm; mobile phase: Solvent A=water (with 0.1% formic acid), solvent B=acetonitrile (with 0.1% formic acid). Gradients: 25-45% B in 10 minutes, 45-65% B in 12 minutes, 65-90% in 6 minutes at a flow rate of 0.5 mL/minute. Required amounts of the product was formulated in 1% PBSA for cell studies.
(§1) The study was conducted using SHP-77, CT26.WT, and CT26.DLL3 cells (Table 7) Adherent cell studies: The cells were cultured in appropriate culture media (20 mL) in tissue culture treated T150 flasks at 37° C. and 5% CO2. Adherent cells were detached (60-70% confluent) using 5 mL Versene at 37° C. for 3 minutes. After confirming the viability using countess and count of detached cells using Trypan blue, the cells were centrifuged at 4° C. for 5 minutes (1,000 rpm). The cell pellet obtained was washed once with PBS and resuspended in 1% PBSA to obtain the desired cell concentration (5-25 million cells/mL).
Suspension cell studies: The cells were cultured in appropriate culture media (20 mL) in tissue culture treated T150 flasks at 37° C. and 5% CO2. After confirming the viability and count of detached cells using Trypan blue, the cells were centrifuged at 4° C. for 5 minutes (1,000 rpm). The cell pellet obtained was washed once with PBS and resuspended in 1% PBSA to obtain the desired cell concentration (5-25 million cells/mL).
Cell numbers used for the assay were in the range of 5 million cells/condition −25 million cells/condition.
Total uptake: Cells were incubated with 300 μL (0.8 μCi) of the incubation buffer (containing radiolabeled peptide [^177Lu] Lu-test peptide) for 1 hour at 37° C. (Table 8). Post incubation, the cells were pelleted and washed 2 times using cold PBS+1% BSA. The supernatant and washes were combined and counted together as “unbound fraction” in a gamma counter. The cells were then resuspended in 300 μL of 1% PBS+1% BSA and counted in the gamma counter as “bound fraction”.
In these Tables, “A” represents %≤25; “B” represents 25<%≤50; “C” represents %>50.

For the next data set, the target named is T1, human DLL3 (Homo sapiens, UniProt Q9NYJ7).
T1 sequence (Q9NYJ7 27-618): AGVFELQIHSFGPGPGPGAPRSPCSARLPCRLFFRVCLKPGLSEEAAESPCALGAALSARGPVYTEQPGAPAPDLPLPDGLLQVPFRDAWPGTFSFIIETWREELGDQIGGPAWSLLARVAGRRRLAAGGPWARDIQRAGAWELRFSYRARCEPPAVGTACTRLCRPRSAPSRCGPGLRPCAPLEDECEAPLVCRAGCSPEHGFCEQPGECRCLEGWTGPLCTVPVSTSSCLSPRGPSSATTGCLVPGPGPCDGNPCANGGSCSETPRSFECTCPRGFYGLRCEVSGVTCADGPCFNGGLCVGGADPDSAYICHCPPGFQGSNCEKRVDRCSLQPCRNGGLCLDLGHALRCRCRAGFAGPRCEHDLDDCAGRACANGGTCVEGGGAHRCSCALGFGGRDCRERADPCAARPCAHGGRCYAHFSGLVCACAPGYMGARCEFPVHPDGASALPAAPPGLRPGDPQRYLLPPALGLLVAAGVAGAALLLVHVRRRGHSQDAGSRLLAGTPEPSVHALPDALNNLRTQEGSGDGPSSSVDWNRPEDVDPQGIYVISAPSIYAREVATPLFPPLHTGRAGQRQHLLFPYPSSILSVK
Kind of data set: Affinity determination by Surface Plasmon Resonance (SPR). Format: binding. The conditions noted are these: 25° C., biotinylated human DLL3 immobilized on streptavidin sensor chip, 1:1 binding model; read-out: SPR KD. The method, boiled down: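 Kinetic and affinity constants were derived by fitting sensorgrams to a 1:1 binding model. Graded compound concentrations flowed at 100 μL/minute in 20 mM phosphate running buffer with 2% DMSO over streptavidin-immobilized biotinylated human DLL3, reference-subtracted.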

The test system of a further data set is SHP-77 tumors. Kind of data set: Ex vivo biodistribution of radiolabeled peptides in nude mice bearing SHP-77 tumors. The conditions noted are these: [177Lu]Lu labelling, nude mice bearing SHP-77 tumors (n = 3), 24 hours post-injection. The gist of the method: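 Nude mice bearing SHP-77 xenografts (200-400 mm^3) or tumor-naïve mice (5-7 weeks) received an intravenous tail-vein bolus of [^177Lu]Lu-peptide and were euthanized at pre-set time points. Tissues were weighed and gamma-counted, with counts decay-corrected to injection time. Values are % IA/g per tissue from the injected activity of each mouse.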

A further data set deals with T2, DLL3 on CT26.DLL3 cells (Homo sapiens (Human), UniProt Q9NYJ7 27-618).
T2 construct: CT26.DLL3 are engineered cells to express DLL3
T2 sequence: T1 sequence (Q9NYJ7 27-618)
The data set can be described thus: 177Lu-peptide bound to CT26.DLL3 cells, gamma counting; letter grade, key in paragraph 629. Here is the method:
as §1
(§2) Total uptake: Cells were incubated with 300 μL (0.8 μCi) of the incubation buffer (containing radiolabeled peptide [¹⁷⁷Lu] Lu-test peptide) for 1 hour at 37° C. (Table 8). Post incubation, the cells were pelleted and washed 2 times using cold PBS+1% BSA. The supernatant and washes were combined and counted together as “unbound fraction” in a gamma counter. The cells were then resuspended in 300 μL of 1% PBS+1% BSA and counted in the gamma counter as “bound fraction”.

The target of a further data set is T3, DLL3 on SHP-77 cells (human, UniProt Q9NYJ7 27-618).
T3 construct: SHP-77 cells are human-derived, non-engineered SCLC cells
T3 sequence: T1 sequence (Q9NYJ7 27-618)
The data set can be described thus: 177Lu-peptide bound to SHP-77 cells, gamma counting; letter grade, key in paragraph 629. Here is the method:
as §1, §2

Numbered stars: 1 amine (or outer) side, 2 acyl side, 3 side chain; on linkers, the order of the positions; unused ones are H or OH. Bridge positions count the residues as written; N and C are the ends. Square brackets hold non-standard residues; d marks the D form. Peptide text beside a SMILES is read from it. * marks the point of attachment. DOTA = O=C(O)CN1CCN(CC(=O)O)CCN(CC(=O)*)CCN(CC(=O)O)CC1; Phe(4-CF3) = N[C@@H](Cc1ccc(C(F)(F)F)cc1)C(=O)O; Trp(5-F) = N[C@@H](Cc1c[nH]c2ccc(F)cc12)C(=O)O; Trp(7-aza) = N[C@@H](Cc1c[nH]c2ncccc12)C(=O)O; Pro(trans-4-F) = O=C(O)[C@@H]1C[C@@H](F)CN1; 2Nal = N[C@@H](Cc1ccc2ccccc2c1)C(=O)O; Nva(3-Et) = CCC(CC)[C@H](N)C(=O)O; CH2 = C([*:1])[*:2] Bounds are passed on as bounds.

For orientation: Kd means the concentration at which binding is half-saturated. With `CC[C@H](C)[C@H](NC(=O)[C@@H](NC(=O)[C@H](Cc1c[nH]c2ccccc12)NC(C)=O)[C@@H](C)O)C(=O)N[C@H]1CSSC[C@@H](C(=O)N[C@@H](Cc2c[nH]c3ccccc23)C(=O)N2CCC[C@H]2C(=O)N[C@@H](CCCCNC(=O)CN2CCN(CC(=O)O)CCN(CC(=O)O)CCN(CC(=O)O)CC2)C(N)=O)NC(=O)[C@H](CC(=O)O)NC(=O)[C@H](Cc2cnc[nH]2)NC(=O)[C@H](Cc2ccc3ccccc3c2)NC(=O)[C@H](CC(N)=O)NC(=O)[C@H](CC(N)=O)NC1=O` [compound 166, Ac-W-T-I-C(3)-N-N-(2Nal)-H-D-C(3)-W-P-[L-Lys(DOTA)]-NH2] (Ac-WTICNN[2Nal]HDCWPK(DOTA)-NH2; disulfide 4-10), the “% Binding” value with SHP-77 cells is listed as “A (%≤25)”. In addition, the Kd on human DLL3 was below 1 nM.
On to `CCC(CC)[C@H](NC(=O)[C@@H](NC(=O)[C@H](Cc1c[nH]c2ccc(F)cc12)NC(C)=O)[C@@H](C)O)C(=O)N[C@H]1CSSC[C@@H](C(=O)N[C@@H](Cc2c[nH]c3ncccc23)C(=O)N2C[C@H](F)C[C@H]2C(=O)N[C@H](CCCCNC(=O)CN2CCN(CC(=O)O)CCN(CC(=O)O)CCN(CC(=O)O)CC2)C(N)=O)NC(=O)[C@H](CC(=O)O)NC(=O)[C@H](Cc2cnc[nH]2)NC(=O)[C@H](Cc2ccc(C(F)(F)F)cc2)NC(=O)[C@H](CC(N)=O)NC(=O)[C@H](CC(N)=O)NC1=O` [compound 146, Ac-(5Fluoro-W)-T-(Env)-C(3)-N-N-(4CF3-F)-H-D-C(3)-(7Aza-W)-(trans4Fluoro-P)-[D-Lys(DOTA)]-NH2] (Ac-[Trp(5-F)]T[Nva(3-Et)]CNN[Phe(4-CF3)]HDC[Trp(7-aza)][Pro(trans-4-F)][dK](DOTA)-NH2; disulfide 4-10), for which, in the data set with SHP-77 cells, the “% Binding” value is on record as “A (%≤25)”. Also, at human DLL3, the dissociation constant Kd was below 1 nM. Moreover, the “kidney uptake (% IA/g)” value in the data set with SHP-77 tumors (kidney) is on record as “C (0 < % IA/g ≤ 10 in kidney)”. Moreover, the “tumor uptake (% IA/g)” value in the data set on SHP-77 tumors (tumor) was “A (0 < % IA/g ≤ 5 in tumor)”.
For `CC[C@H](C)[C@H](NC(=O)[C@@H](NC(=O)[C@H](Cc1c[nH]c2ccccc12)NC(C)=O)[C@@H](C)O)C(=O)N[C@H]1CSCSC[C@@H](C(=O)N[C@@H](Cc2c[nH]c3ccccc23)C(=O)N2CCC[C@H]2C(=O)N[C@H](CCCCNC(=O)CN2CCN(CC(=O)O)CCN(CC(=O)O)CCN(CC(=O)O)CC2)C(N)=O)NC(=O)[C@H](CC(=O)O)NC(=O)[C@H](Cc2cnc[nH]2)NC(=O)[C@H](Cc2ccc3ccccc3c2)NC(=O)[C@H](CC(N)=O)NC(=O)[C@H](CC(N)=O)NC1=O` [compound 165, Ac-WTI-C(1)-NN(2Nal)HD-C(1)-WP-[D-Lys(DOTA)]-NH2] (Ac-WTICNN[2Nal]HDCWP[dK](DOTA)-NH2; linker 4-10 via CH2), the “% Binding” value with SHP-77 cells is recorded as “A (%≤25)”. For the same molecule, the dissociation constant Kd at human DLL3 is below 1 nM.
On to Ac-WTICNNWHDCWP[dK](DOTA)-NH2 (disulfide 4-10; also: 177Lu chelated in DOTA, also called [177Lu]Lu-test peptide) [[177Lu]Lu-labelled Cpd No. 23], for which the “% Binding” value in the data set with DLL3 on CT26.DLL3 cells and with DLL3 on SHP-77 cells was at most 25% each time.
Regarding Ac-WTICNN[2Nal]HDCWPK(DOTA)-NH2 (disulfide 4-10; also: 177Lu chelated in DOTA, also called [177Lu]Lu-test peptide) [[177Lu]Lu-labelled Cpd No. 166], the “% Binding” value with DLL3 on SHP-77 cells was at most 25%.
Still for that read-out and setting: the value for Ac-WTICNN[2Nal]HDCWP[dK](DOTA)-NH2 (disulfide 4-10; also: 177Lu in the DOTA chelator, also called [177Lu]Lu-test peptide) [[177Lu]Lu-labelled Cpd No. 75] was at most 25%.
On the same count and under the same terms, the value for Ac-WTICNN[2Nal]HDCWP[dK](DOTA)-NH2 (bridge 4-10; also: 177Lu chelated in DOTA, also called [177Lu]Lu-test peptide) [[177Lu]Lu-labelled Cpd No. 165] was at most 25%.

(Values after patent US20250011368A1, “DLL3 TARGETING PEPTIDES AND CONSTRUCTS THEREOF” (MARIANA ONCOLOGY INC., priority 2023, published 2025).)
